Measured values published in PubChem BioAssay AID330 (DTP/NCI, 2004).
“And” between values parts separate entries of the source, which are not always exact repeats. Equal entries are not always repeated. Toxic doses and inconclusive results are not listed. The calls were made as follows: active = survival T/C of 150% or more; inactive = T/C below 125% in these data.

System: P388 leukemia ip, CD2F1 mice, survival T/C
Experiment: NCI In Vivo Anticancer Drug Screen. Data for tumor model P388 Leukemia (intraperitoneal) in CD2F1 (CDF1) mice
Conditions: endpoint: median survival time, higher = longer survival
In short: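 Mice carrying the transplanted tumor received test compound or vehicle. Survival was recorded in each group, and the value is the treated-group measurement divided by that of the vehicle-treated control group.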

[1] = dose: 100.0 mg/kg/injection, schedule: Q04DX002 (ip), vehicle: saline
[2] = dose: 100.0 mg/kg/injection, schedule: Q04DX003 (ip), vehicle: Klucel (hydroxypropylcellulose) (HPC)
[3] = dose: 200.0 mg/kg/injection, schedule: Q04DX003 (ip), vehicle: Klucel (hydroxypropylcellulose) (HPC)
[4] = dose: 400.0 mg/kg/injection, schedule: Q04DX003 (ip), vehicle: Klucel (hydroxypropylcellulose) (HPC)
[5] = dose: 100.0 mg/kg/injection, schedule: Q01DX009 (ip), vehicle: saline with Tween-80
[6] = dose: 200.0 mg/kg/injection, schedule: Q01DX009 (ip), vehicle: saline with Tween-80
[7] = dose: 50.0 mg/kg/injection, schedule: Q01DX009 (ip), vehicle: saline
[8] = dose: 100.0 mg/kg/injection, schedule: Q01DX009 (ip), vehicle: saline
[9] = dose: 200.0 mg/kg/injection, schedule: Q01DX009 (ip), vehicle: saline
[10] = dose: 50.0 mg/kg/injection, schedule: Q01DX009 (ip), vehicle: saline with Tween-80
[11] = dose: 50.0 mg/kg/injection, schedule: Q01DX005 (ip), vehicle: saline with Tween-80
[12] = dose: 100.0 mg/kg/injection, schedule: Q01DX005 (ip), vehicle: saline with Tween-80
[13] = dose: 200.0 mg/kg/injection, schedule: Q01DX005 (ip), vehicle: saline with Tween-80
[14] = dose: 50.0 mg/kg/injection, schedule: Q01DX009 (ip), vehicle: suspension in saline
[15] = dose: 100.0 mg/kg/injection, schedule: Q01DX009 (ip), vehicle: suspension in saline
[16] = dose: 200.0 mg/kg/injection, schedule: Q01DX009 (ip), vehicle: suspension in saline

Measured: T/C

CNC(=S)NNC(=O)C(Cc1ccc([N+](=O)[O-])cc1)C(=O)NNC(=S)NC
inactive: [1] 98 % of control | dose: 200.0 mg/kg/injection, schedule: Q04DX002 (ip), vehicle: saline 98 % of control | dose: 400.0 mg/kg/injection, schedule: Q04DX002 (ip), vehicle: saline 90 % of control

N#CC1=Cc2ccccc2OC1
inactive: [2] 108 % of control | [3] 108 % of control | [4] 105 % of control

Nc1nc(N)nc(NC(=O)COc2cc(Cl)c(Cl)cc2Cl)n1
inactive: [5] 95 % of control | [6] 90 % of control | dose: 400.0 mg/kg/injection, schedule: Q01DX009 (ip), vehicle: saline with Tween-80 100 % of control

CCOC(=O)CNC(=O)NNC(=O)OCC
inactive: dose: 6.25 mg/kg/injection, schedule: Q01DX009 (ip), vehicle: saline 98 % of control | dose: 12.5 mg/kg/injection, schedule: Q01DX009 (ip), vehicle: saline 91 % of control | [7] 100 % of control | [8] 100 % of control | [9] 100 % of control

CC(=O)OCCN1CCN(CCCN2c3ccccc3Sc3ccc(C(F)(F)F)cc32)CC1
inactive: [1] 89 % of control and 90 % of control

Cc1cc(C)c2c(=O)n(C)c(=O)n(C)c2n1
inactive: [10] 89 % of control | [5] 94 % of control | [6] 103 % of control

C=C1C2CCC3C(CCC4C35CCC[C@]4(C)CN3CCO[C@H]35)(C2)[C@@H]1O (stereo partly specified)
inactive: dose: 4.0 mg/kg/injection, schedule: Q01DX009 (ip), vehicle: Klucel (hydroxypropylcellulose) (HPC) 108 % of control | dose: 8.0 mg/kg/injection, schedule: Q01DX009 (ip), vehicle: Klucel (hydroxypropylcellulose) (HPC) 110 % of control | dose: 16.0 mg/kg/injection, schedule: Q01DX009 (ip), vehicle: Klucel (hydroxypropylcellulose) (HPC) 94 % of control | dose: 32.0 mg/kg/injection, schedule: Q01DX009 (ip), vehicle: Klucel (hydroxypropylcellulose) (HPC) 99 % of control

Oc1ccc2ccccc2c1/C=N/N=c1\[nH][nH]/c(=N\N=C\c2c(O)ccc3ccccc23)c2ccccc12
inactive: [11] 98 % of control | [12] 97 % of control | [13] 99 % of control

CC(=O)OCCOCNC(=S)NN
inactive: dose: 60.0 mg/kg/injection, schedule: Q01DX005 (ip), vehicle: saline with Tween-80 101 % of control | dose: 120.0 mg/kg/injection, schedule: Q01DX005 (ip), vehicle: saline with Tween-80 101 % of control | dose: 240.0 mg/kg/injection, schedule: Q01DX005 (ip), vehicle: saline with Tween-80 90 % of control

Cc1ccc(S(=O)(=O)OC2CCC3(C)C(CCC4C3CCC3(C)C(C(C)CCCC(C)C)CCC43)C2)cc1 (stereo unspecified)
inactive: dose: 3.0 mg/kg/injection, schedule: Q01DX005 (ip), vehicle: Klucel (hydroxypropylcellulose) (HPC) 107 % of control | dose: 6.0 mg/kg/injection, schedule: Q01DX005 (ip), vehicle: Klucel (hydroxypropylcellulose) (HPC) 117 % of control | dose: 12.5 mg/kg/injection, schedule: Q01DX005 (ip), vehicle: Klucel (hydroxypropylcellulose) (HPC) 100 % of control

O=C1CS(=O)(=O)C(c2cccs2)N1CCN1C(=O)CS(=O)(=O)C1c1cccs1 (stereo unspecified)
inactive: dose: 100.0 mg/kg/injection, schedule: Q04DX002 (ip), vehicle: saline with Tween-80 97 % of control and 94 % of control | dose: 200.0 mg/kg/injection, schedule: Q04DX002 (ip), vehicle: saline with Tween-80 94 % of control and 93 % of control | dose: 400.0 mg/kg/injection, schedule: Q04DX002 (ip), vehicle: saline with Tween-80 92 % of control and 90 % of control

Cc1cc(NC(=S)SCc2ccc(F)cc2)c([N+](=O)[O-])cc1C
inactive: [14] 93 % of control | [15] 90 % of control | [16] 98 % of control

C=C1C(=O)OC2C=CCCC12 (stereo unspecified)
inactive: dose: 12.5 mg/kg/injection, schedule: Q01DX009 (ip), vehicle: water 101 % of control | dose: 25.0 mg/kg/injection, schedule: Q01DX009 (ip), vehicle: water 103 % of control | dose: 50.0 mg/kg/injection, schedule: Q01DX009 (ip), vehicle: water 106 % of control | dose: 100.0 mg/kg/injection, schedule: Q01DX009 (ip), vehicle: water 118 % of control

Nc1ccc(/C=C/c2ccc(N)cc2S(=O)(=O)O)c(S(=O)(=O)O)c1
inactive: dose: 25.0 mg/kg/injection, schedule: Q01DX009 (ip), vehicle: suspension in saline 99 % of control | [7] 104 % of control | [14] 95 % of control | [8] 104 % of control | [15] 99 % of control | [9] 108 % of control | [16] 107 % of control | dose: 400.0 mg/kg/injection, schedule: Q01DX009 (ip), vehicle: saline 110 % of control

C/C=C1/CC2C=Nc3cc(O)c(OC)cc3C(=O)N2C1 (stereo unspecified)
active: dose: 1.0 mg/kg/injection, schedule: Q01DX005 (ip), vehicle: saline + alcohol 157 % of control
inactive: dose: 50.0 micrograms/kg/injection, schedule: Q01DX005 (ip), vehicle: saline + alcohol 98 % of control | dose: 100.0 micrograms/kg/injection, schedule: Q01DX005 (ip), vehicle: saline + alcohol 110 % of control | dose: 200.0 micrograms/kg/injection, schedule: Q01DX005 (ip), vehicle: saline + alcohol 116 % of control | dose: 400.0 micrograms/kg/injection, schedule: Q01DX005 (ip), vehicle: saline + alcohol 120 % of control

COc1c2occc2c(OC(C)C(=O)O)c2c(O)cc(=O)oc12 (stereo unspecified)
inactive: [11] 95 % of control | [12] 101 % of control | [13] 95 % of control

CC(C)=CCC/C(C)=C/CSC#N
inactive: dose: 25.0 mg/kg/injection, schedule: Q01DX005 (ip), vehicle: saline with Tween-80 102 % of control | [11] 105 % of control | [12] 111 % of control | [13] 104 % of control

CCN=C1C=C/C(=C(/c2ccc(NCC)c(C)c2)c2cc(O)c(S(=O)(=O)O)cc2S(=O)(=O)O)C=C1C
inactive: dose: 60.0 mg/kg/injection, schedule: Q01DX005 (ip), vehicle: saline 107 % of control | dose: 120.0 mg/kg/injection, schedule: Q01DX005 (ip), vehicle: saline 106 % of control | dose: 240.0 mg/kg/injection, schedule: Q01DX005 (ip), vehicle: saline 102 % of control

CC(=O)Nc1ccc(CN2CC(C)N(N)C(C)C2)cc1 (stereo unspecified)
inactive: dose: 25.0 mg/kg/injection, schedule: Q04DX003 (ip), vehicle: Klucel (hydroxypropylcellulose) (HPC) 101 % of control | dose: 50.0 mg/kg/injection, schedule: Q04DX003 (ip), vehicle: Klucel (hydroxypropylcellulose) (HPC) 98 % of control | [2] 95 % of control | [3] 100 % of control | [4] 104 % of control

NC1[N-]C(C2CCCC[N-]2)CC2CCCCC21.NC1[N-]C(C2CCCC[N-]2)CC2CCCCC21.O=[N+]([O-])O.[Cu+] (stereo unspecified)
inactive: dose: 6.25 mg/kg/injection, schedule: Q04DX009 (ip), vehicle: suspension in saline 98 % of control | dose: 12.5 mg/kg/injection, schedule: Q04DX009 (ip), vehicle: suspension in saline 103 % of control | dose: 25.0 mg/kg/injection, schedule: Q04DX009 (ip), vehicle: suspension in saline 113 % of control

OC1C=CC2CCC1C2 (stereo unspecified)
inactive: [10] 107 % of control | [5] 114 % of control | [6] 115 % of control

c1ccc2c(c1)Sc1ccccc1N2CCCNC1=NCCO1
inactive: dose: 12.5 mg/kg/injection, schedule: Q04DX003 (ip), vehicle: saline with Tween-80 94 % of control | dose: 25.0 mg/kg/injection, schedule: Q04DX003 (ip), vehicle: saline with Tween-80 96 % of control | dose: 50.0 mg/kg/injection, schedule: Q04DX003 (ip), vehicle: saline with Tween-80 87 % of control | dose: 200.0 mg/kg/injection, schedule: Q04DX003 (ip), vehicle: saline with Tween-80 88 % of control | dose: 400.0 mg/kg/injection, schedule: Q04DX003 (ip), vehicle: saline with Tween-80 90 % of control

CN1OC2(CCCCC2)n2c(=O)c3ccccc3c(=O)n2C1c1ccccc1 (stereo unspecified)
inactive: [7] 100 % of control | [8] 100 % of control | [9] 95 % of control

CC(=O)Nc1c(Cl)cc(Cl)c2c1Cc1cc(Cl)ccc1-2
inactive: dose: 50.0 mg/kg/injection, schedule: Q01DX005 (ip), vehicle: Klucel (hydroxypropylcellulose) (HPC) 88 % of control | dose: 100.0 mg/kg/injection, schedule: Q01DX005 (ip), vehicle: Klucel (hydroxypropylcellulose) (HPC) 94 % of control | dose: 200.0 mg/kg/injection, schedule: Q01DX005 (ip), vehicle: Klucel (hydroxypropylcellulose) (HPC) 112 % of control
